# Measurements reported in patent publication US20230076977A1, “UTROPHIN UPREGULATION COMPOUNDS FOR DUCHENNE MUSCULAR DYSTROPHY THERAPY” (THE TRUSTEES OF THE UNIVERSITY OF PENNSYLVANIA, priority 2020, published 2023).
# Like-named read-outs stand apart in the source and are kept apart here. Starred links: 1 amine or outer side, 2 acyl side, 3 side chain; linkers in the order of their positions; H or OH if unused. Positions of bridges follow the written chain, without caps; N, C: chain ends. Non-standard residues stand in square brackets, D forms with d. Residues, ends and D or L forms follow the SMILES beside them. Chains are numbered I, II in the order given. Hexamethylenediamine = C(CCCN[*:2])CCN[*:1]; Dip = N[C@H](C(=O)O)C(c1ccccc1)c1ccccc1; Chg = N[C@H](C(=O)O)C1CCCCC1; NMeA = CN[C@@H](C)C(=O)O
# Tests used:
# Type in all cases: cell-based
# [1] = tested on: 5′- and 3′-UTRs of human utrophin; assay: Screening assay: C2C12 stable reporter line, CMV-driven luciferase flanked by utrophin 5′ and 3′ UTRs; conditions: for Upper-lower limits scoren: difference between upper and lower boundaries of the fitted dose-response screening curve; for Fold diff: fold difference between the EC50s of screening and counterscreening
# Experimental: (§1) The construct for the HTS assay was generated by cloning the 5′- and 3′-UTRs of human utrophin into pGL4:50-hygro (Promega, Madison, Wis.) at the 5′ and 3′ of the luciferase coding sequence and has been described previously by Moorwood. […] For the counterscreening assay, the pGL4:50-hygro plasmid was used alone. Low passage C2C12 cells obtained from ATCC were transfected with either constructs, stably selected with 500 μg/mL hygromycin and subcloned using two rounds of serial dilutions to isolate single cell-derived colonies in a 96 wells plate format. […] The selected clones were cultured in presence of 100 μg/mL hygromycin B and were transferred to the HTS Facility at the University of Pennsylvania for implementation into a 384-wells format suitable for HTS.
# (§2) The construct for generating the screening C2C12 cell line carrying the 5′ and 3′UTR of the human utrophin gene is described by Moorwood. […] Some compounds could increase light emission independently from the 5′ and 3′UTR regions, i.e., by activating the CMV promoter or increasing overall mRNA synthesis. Therefore, in order to distinguish such compounds, a counterscreening cell line stably expressing only the CMV-driven luciferase gene was generated (FIG. 1A). To determine optimal conditions for the implementation in a 384-wells high-throughput format, evaluated were DMSO tolerance, optimal cell density and incubation time (FIG. 5A-5C).
# (§3) A first criterion for evaluating the performance of the selected hits was whether their activity was dose-dependent. After performing a dose-response analysis (5 nM to 10 μM) of each hit in the screening cell line, a clustering approach was applied (complete linkage with Euclidean distance measurement) to highlight similarities between compounds profiles. […] By modeling each dose-response trace with a 4-parameter logistic model applied to the Z— score values (FIG. 2B), the EC50 of each molecule was calculated.
# (§4) Cells were allowed to attach overnight at 37° C., 5% CO2 in a humidified chamber. […] Compounds were added to a final concentration of 1 μM and 100 nM in 0.2% DMSO. Columns 1 and 23 were treated with 0.2% DMSO (negative control). Columns 2 and 24 were treated with 100 nM Panobinostat (positive control). Cells were incubated for 24 hours at 37° C., 5% CO2. […] Luminescence was measured on an EnVisionXcite Multilabel Plate Reader (PerkinElmer), using ultrasensitive luminescence measurement technology.
# [2] = tested on: utrophin protein in C2C12 cells; assay: Utrophin western blot in C2C12 cells (endogenous protein expression); conditions: for Utrophin protein levels, fold increase: 1 μM, 24 hours, normalized to tubulin, vs 0.1% DMSO control; for utrophin protein levels in a separate assay (data not shown): hits with H2LPS equal to 0
# Experimental: The 10 highest scoring hits were selected from this subset for performing in vitro validation. C2C12 cells were treated with 1 μM concentrations of the selected hits for 24 hours, followed by western blot evaluation of utrophin levels as an orthogonal assay for endogenous protein expression. […] Panobinostat, an FDA-approved non-selective HDAC inhibitor for cancer treatment, increased utrophin levels by 1.9-fold. […] AR-42 (S2244), another HDAC inhibitor with proven preclinical efficacy in contrasting cancer-induced cachexia, increased utrophin by 2.3-fold and had the second highest H2LPS. Consistent with the calculated HPS, the highest scoring hit, TSA (S1045), had also the highest magnitude of protein upregulation (3.9-fold) followed by PCI-24781 (S1090; 3.7-fold). Importantly, high H2LPS was generally correlated with confirmation in WB assays (FIG. 2E).
# Total RNA was extracted from TA muscle samples with RNAeasy kit (Qiagen, USA) and reverse transcribed with random hexamers. qPCR was performed using Taqman probes for Utrophin (Assay ID Mm01168846_ml) and β-actin. Muscle tissue samples were lysed with TNEC buffer (50 mM Tris-HCl, pH 8.0; 150 mMNaCl; 1% NP40; 2 mM EDTA) buffer containing complete protease inhibitor cocktail (Roche, Basel, Switzerland). C2C12 cells were treated for 24 h with 1 μM concentrations of compounds from a fresh batch (3 wells for each compound), and cell samples were lysed with RIPA buffer with protease inhibitor cocktail. The experiment was repeated three independent times. 50-75 μg of total proteins from muscle tissues, or 4 μg of cell protein extracts, were resolved on a 3-8% Tris-Acetate gradient gel (NuPage; Invitrogen), transferred to PDVF or nitrocellulose membranes and mouse monoclonal anti-utrophin antibody MANCHO3 clone 8A4 (developed by Glenn E. Morris and obtained from the Developmental Studies Hybridoma Bank, Iowa) or a custom-made anti-UtrophinA rabbit polyclonal antibody (muscle tissue samples) generated and described previously by Chakkalakal et al., Nucleic Acids Res. 36, 826-838 (2008), which is incorporated herein by reference in its entirety.
# TSA is a broad-spectrum HDAC inhibitor. […] To further validate in vitro the dose-dependent capacity of TSA to upregulate utrophin protein, C2C12 cells were treated for 24 hours with increasing concentrations of TSA (from 1 nM to 10 μM) (FIG. 3B). Consistent with the single-dose western blot validation experiments, utrophin protein levels were increased 4.3 times by 1 μM TSA. […] Some cytotoxicity was evident for TSA concentrations higher than 1 μM.
# [3] = tested on: CMV-driven luciferase gene; assay: Counterscreening assay: C2C12 line stably expressing only the CMV-driven luciferase gene; conditions: for luciferase activity in the counterscreening assay: dose-response 5 nM to 10 μM, FIG. 6
# Experimental: as §1, §2, §3, §4
# [4] = C2C12, 4-parameter logistic fit of Z-scores, 24 h, no unit in table (0.013 = 13 nM), read-out: EC50 screen
# [5] = C2C12, read-out: EC50 score (1 to 4)
# [6] = 4-parameter logistic fit of Z-scores, 24 h, no unit in table (0.013 = 13 nM), read-out: EC50 screen
Compound,"EC50 [1, 4] [nM]","EC50 [1, 5] [nM]",Upper-lower limits scoren [1],Fold diff [1],other results
CC(C)[C@H](C(=O)Nc1ccc(C(=O)NO)cc1)c1ccccc1 [AR-42],369,100 to 1000,59.94,14.72,"Utrophin protein levels, fold increase [2]: 2.3 fold"
CC(=O)O/N=C1/C(=C2/C(=O)Nc3cc(Br)ccc32)Nc2ccccc21 [BIO-acetoxime],,,13.04,0.65,"EC50 [1, 6]: 330 nM"
O=C1Nc2cc(Br)ccc2/C1=C1/Nc2ccccc2/C1=N\O [BIO],,,12,,
CN[C@@H](C)C(=O)N[C@H](C(=O)N1CCC[C@H]1C(=O)N[C@H](C(=O)NCCCCCCNC(=O)[C@@H](NC(=O)[C@@H]1CCCN1C(=O)[C@@H](NC(=O)[C@H](C)NC)C1CCCCC1)C(c1ccccc1)c1ccccc1)C(c1ccccc1)c1ccccc1)C1CCCCC1 [BV-6] (I: H-[NMeA][Chg]P[Dip] / II: H-[NMeA][Chg]P[Dip]; linker I:C-II:C via Hexamethylenediamine),,,7.00,High,"EC50 [1, 6]: 99 nM"
O=C(/C=C/c1cccc(S(=O)(=O)Nc2ccccc2)c1)NO [Belinostat],342,100 to 1000,43.41,High,
C#Cc1cccc(Nc2ncnc3cc(OC)c(OCCCCCCC(=O)NO)cc23)c1 [CUDC-101],1990,> 1000,34.34,High,
COc1ccc(-c2nc(N3CCOCC3)c3sc(CN(C)c4ncc(C(=O)NO)cn4)cc3n2)cn1 [CUDC-907],,< 50,,,luciferase activity in the counterscreening assay [3]: significant luciferase activity
CCN(CC)Cc1ccc2cc(COC(=O)Nc3ccc(C(=O)NO)cc3)ccc2c1 [Givinostat],269,100 to 1000,46.59,18.69,"Utrophin protein levels, fold increase [2]: 2.2 fold"
O=C1Cc2c([nH]c3ccc(Br)cc23)-c2ccccc2N1 [Kenpaullone],34,< 50,12.92,6.97,
"O=C(/C=C/c1ccc(CN(CCO)CCc2c[nH]c3ccccc23)cc1)NO [LAQ824, Dacinostat]",,,,,utrophin protein levels in a separate assay (data not shown) [2]: failed to increase utrophin protein levels
Cc1cc(C)cc(C(=O)NOCCCCCC(=O)NO)c1 [LMK-235],683,100 to 1000,43.40,High,
CN(C)c1ccc(C(=O)NCCCCCCC(=O)NO)cc1 [M344],,,74.15,2.54,"EC50 [1, 6]: 3220 nM"
Cc1cc(O)c(-c2ccc([C@@H](C)CN)cc2)c2c1[nH]c(=O)c1sccc12.Cl [OTS514 hydrochloride],,,,,utrophin protein levels in a separate assay (data not shown) [2]: failed to increase utrophin protein levels
CCCCc1nc2cc(/C=C/C(=O)NO)ccc2n1CCN(CC)CC [Pracinostat],558,100 to 1000,56.37,59.25,
Cn1cc(CNCC2CCN(c3ncc(C(=O)NO)cn3)CC2)c2ccccc21 [Quisinostat],,,,,utrophin protein levels in a separate assay (data not shown) [2]: failed to increase utrophin protein levels
O=C(CCCCCN1C(=O)c2cccc3cccc(c23)C1=O)NO [Scriptaid],2440,> 1000,62.01,High,
CC(C)Oc1ccc2c(=O)c(-c3ccccc3)coc2c1 [ipriflavone],,< 50,,,
Abexinostat [PCI-24781],,,44.18,33.72,"EC50 [1, 6]: 138 nM; Utrophin protein levels, fold increase [2]: 3.7 fold"
Panobinostat,,,22.06,9.21,"increase over the basal signal, counterscreening ([3]; FIG. 8, Panobinostat-treated vs untreated): 100 fold; signal (S), counterscreening ([3]; FIG. 8, basal about 400 RLUs): 25-40,000 RLUs; luciferase activity in the counterscreening assay [3]: significant luciferase activity; EC50 [1, 6]: 13 nM; increase of signal activity over basal signal, primary screening ([1]; FIG. 8, Panobinostat-treated vs untreated stable C2C12 cells): 4-6 fold; signal (S), primary screening ([1]; FIG. 8, basal about 20,000 RLUs): about 100,000 RLUs; activity in library screen (threshold 22.07% NPAc) ([1]; screened at 0.1 μM and 1 μM, 24 h): active at both concentrations; Utrophin protein levels, fold increase [2]: 1.9 fold"
